Test results reported in paper PMC12311259, “Antifibrotic effects of specific targeting of the 5‐hydroxytryptamine 2B receptor (5‐HT2BR) in murine models and ex vivo models of scleroderma skin” (Arthritis & Rheumatology (Hoboken, N.j.), 2025).

Tested on: Bleomycin-induced pulmonary fibrosis
Assay: Bleomycin-induced pulmonary fibrosis in mice
Assay type: in vivo, mouse
Conditions: 30 mg/kg orally qd, relative to AM1476
Experimental: Pulmonary fibrosis was induced by a single intratracheal instillation of bleomycin (25 μg in 50 μL of 0.9% NaCl).[12] Treatment was initiated at two weeks after the first injection of bleomycin. AM1476 was administered orally at 1, 3, or 10 mg/kg once daily. Solvent (double‐distilled water) was used as a control, and nintedanib at 30 mg/kg orally every day (qd) was included as a comparator. The outcome was analyzed at two and four weeks after the first injection of bleomycin. Mice injected with 0.9% NaCl, the vehicle of bleomycin, served as nonfibrotic controls. Eight mice per group were analyzed.
Skin samples were fixed in 4% formalin for six hours and embedded in paraffin. Five‐micrometer sections were cut and stained with hematoxylin and eosin (H&E). The dermal thickness was quantified on H&E‐stained sections using images captured with a light microscope (Nikon eclipse 80i) at 100‐fold magnification by manually measuring the distance between the epidermal‐dermal junction and the dermal‐subcutaneous fat junction at four sites per mouse.[15], [16] For lung samples, the whole left lung was fixed in 4% formalin for six hours and embedded in paraffin. Five‐micrometer sections were cut and stained with trichrome and sirius red. Histologic readouts were evaluation of the fibrotic area as the percentage of the total lung area in sirius red–stained sections (two sections per mouse) and quantification of pulmonary changes using the Ashcroft score (four sections per mouse).[17], [18]
The amount of collagen protein in skin and lung samples was determined by hydroxyproline assay.[19], [20] After digestion in 6 M HCl for three hours at 120°C, the pH of the samples was adjusted to a pH range of 6–7 with 6 M NaOH. Afterward, 0.06 M chloramine T was added to each sample and incubated for 20 minutes at room temperature. Next, 3.15 M perchloric acid and 20% p‐dimethylaminobenzaldehyde were added, and samples were incubated for an additional 20 minutes at 60°C. The absorbance was determined at 557 nm with a Spectra MAX 190 microplate spectrophotometer. Absolute values were determined using a standard curved generated with type I collagen (Sigma‐Aldrich).

COC(=O)c1ccc2c(c1)NC(=O)/C2=C(\Nc1ccc(N(C)C(=O)CN2CCN(C)CC2)cc1)c1ccccc1 [nintedanib, reference compound]
antifibrotic effects across the different readouts: comparable
